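Five concentrations, 48 hours, 96-well plates. TGI marks complete inhibition of growth.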
How the values were obtained:
Assay in all cases: NCI anticancer screen, dose series, 48 h
CAKI-1 renal = test system: CAKI-1 renal
LOX IMVI melanoma = test system: LOX IMVI melanoma
SR leukemia = test system: SR leukemia
DU-145 prostate = test system: DU-145 prostate
A498 renal = test system: A498 renal
HS 578T breast = test system: HS 578T breast
U251 CNS = test system: U251 CNS
TK-10 renal = test system: TK-10 renal
HCT-15 colon = test system: HCT-15 colon
NCI-H460 lung = test system: NCI-H460 lung
T-47D breast = test system: T-47D breast
MOLT-4 leukemia = test system: MOLT-4 leukemia
HCC-2998 colon = test system: HCC-2998 colon
MDA-MB-435 = test system: MDA-MB-435
RXF 393 renal = test system: RXF 393 renal
SF-539 CNS = test system: SF-539 CNS
UACC-257 melanoma = test system: UACC-257 melanoma
HCT-116 colon = test system: HCT-116 colon
NCI-H522 lung = test system: NCI-H522 lung

SMILES | TGI (CAKI-1 renal) | TGI (LOX IMVI melanoma) | TGI (SR leukemia) | TGI (DU-145 prostate) | TGI (A498 renal) | TGI (HS 578T breast) | TGI (U251 CNS) | TGI (TK-10 renal) | TGI (HCT-15 colon) | TGI (NCI-H460 lung) | TGI (T-47D breast) | TGI (MOLT-4 leukemia) | TGI (HCC-2998 colon) | TGI (MDA-MB-435) | TGI (RXF 393 renal) | TGI (SF-539 CNS) | TGI (UACC-257 melanoma) | TGI (HCT-116 colon) | TGI (NCI-H522 lung)
CCOC(C)O[C@H]1C(=O)OCC1(C)C (stereo partly specified) | > 100 µM | > 100 µM | > 100 µM | > 100 µM | > 100 µM | > 100 µM | > 100 µM | > 100 µM | > 100 µM | > 100 µM | > 100 µM | > 100 µM | > 100 µM | > 100 µM | > 100 µM | > 100 µM | > 100 µM | – | –
Clc1ccc(-c2cc3nc4ccccc4nc3o2)cc1 | > 100 µM | > 100 µM | > 100 µM | > 100 µM | > 100 µM | > 100 µM | > 100 µM | > 100 µM | > 100 µM | > 100 µM | > 100 µM | > 100 µM | > 100 µM | > 100 µM | 90 µM | > 100 µM | > 100 µM | > 100 µM | –
CC(=O)Oc1ccc2cc(-c3ccccc3OC(C)=O)c(=O)oc2c1 | – | > 100 µM | > 100 µM | > 100 µM | > 100 µM | > 100 µM | > 100 µM | – | > 100 µM | > 100 µM | 56.7 µM | > 100 µM | > 100 µM | > 100 µM | – | > 100 µM | > 100 µM | > 100 µM | 17.9 µM
CSc1cc(Cl)c(C)cc1S(=O)(=O)NC(=O)NNc1cccc(C(F)(F)F)n1 | > 100 µM | > 100 µM | > 100 µM | > 100 µM | > 100 µM | > 100 µM | > 100 µM | – | > 100 µM | > 100 µM | > 100 µM | 51.8 µM | > 100 µM | > 100 µM | > 100 µM | > 100 µM | – | > 100 µM | > 100 µM
N#Cc1[nH]c(=O)n(-c2ccccc2)c1N | – | 1.58 µM | > 10 µM | > 10 µM | > 10 µM | > 10 µM | > 10 µM | > 10 µM | > 10 µM | > 10 µM | > 10 µM | > 10 µM | > 10 µM | > 10 µM | > 10 µM | > 10 µM | > 10 µM | > 10 µM | –
CO/C=C(/C(=O)OC)c1ccccc1COc1cccc(C(F)(F)F)c1 | 53.9 µM | 13.6 µM | > 100 µM | > 100 µM | 68.6 µM | > 100 µM | > 100 µM | – | > 100 µM | > 100 µM | 91.4 µM | > 100 µM | > 100 µM | 23.1 µM | 78.3 µM | > 100 µM | 21.3 µM | > 100 µM | 5.86 µM
O=C(c1ccco1)N(C(=S)OCCOc1ccccc1)c1ccccc1 | 48.4 µM | 34.5 µM | – | 51.6 µM | 33.1 µM | > 100 µM | 30.2 µM | 55.2 µM | 45.3 µM | 58.6 µM | 76.2 µM | 55.3 µM | 37.9 µM | 29.7 µM | 28.2 µM | 39 µM | 37.4 µM | 32.5 µM | 40.5 µM

Source: PubChem BioAssay (NCI)
